Test results as given in patent EP0598753B1, “MANGANESE COMPLEXES OF NITROGEN-CONTAINING MACROCYCLIC LIGANDS EFFECTIVE AS CATALYSTS FOR DISMUTATING SUPEROXIDE” (MONSANTO COMPANY, priority 1991, dated 1993).
“Also recorded” adds a separate entry of the source.

Experiments:
[1] = test system: human aortic endothelial cells (HAE cells)
Excerpt: Human peripheral blood neutrophils were isolated from fresh venous blood of healthy volunteers. EDTA anticoagulated blood was separated using a single step density centrifugation (Polymorphprep; Nycomed Pharma, Oslo, Norway) followed by several washes in Hank's balanced salt solution supplemented with 0.5% BSA (Bovine Serum Albumin) (HBSSB) and the hypertonic lysis of erythrocytes. Neutrophils were counted via Coulter electronic particle counter and resuspended in HBSSB supplemented with 25% Endothelial Basal Medium (EBM), (Clonetics Corporation, San Diego, CA) at a concentration of 5 x 10^6 polymorphonuclear leukocytes (PMN)/ml.
The cytotoxic effects of stimulated neutrophils on endothelial cells were determined using a ^51Cr-release assay as previously described (Moldow, C.F., and Jacob, H.S. (1984) Methods Enzymol. 105, 378-385). Confluent monolayers of human aortic endothelial cells (HAE cells; Clonetics) grown in 96-well culture plates were prelabeled with 1 µCi/well ^51Cr (Na2 ^51Cr2O4, New England Nuclear, Boston, MA). The cells were incubated for 18 h at 37°C, then cytokine-activated with 10 Units/well human recombinant tumor necrosis factor-a (hrTNF-α; Monsanto Company, St. Louis, MO) for 4 h at 37°C. The cells were washed twice to remove unincorporated radioactivity with Hank's balanced salt solution supplemented with 0.5% BSA. To assess inhibition of PMN-mediated cytotoxicity, manganese(II) complexes at various doses (0-300 µM) were added to five replicate wells/dose of HAE cells immediately prior to the addition of PMN. Suspensions of PMN in HBSSB supplemented with 25% Endothelial Basal Medium were added to the wells at a neutrophil to endothelial cell ratio of 50:1. The PMN were allowed to adhere for 15 minutes at 37°C, primed with 125 Units/well hrTNF-α (Berkow, R.L., Wang, D., Larrick, J.W., Dodson, R.W., and Howard, T.H. (1987) J. Immunol. 139, 3783-3791; Varani, J.; Bendelow, M. J. Sealey, D. E.; Kunkel, S. L.; Gannon, D. E.; Ryan, U.S.; and Ward, P.A. (1987) Lab. Invest., 59, 292-295) for 10 minutes, and stimulated with human recombinant complement component C5a (Sigma Chemical, St. Louis, MO). […] After an additional incubation of 4 hours at 37°C, 200 µl of the 250 µl reaction volume (soluble fraction) was removed to a tube for counting. The cells were washed twice with 200 µl HBSSB (nonadherent fraction) and the washes pooled with the soluble fraction. The adherent fraction was collected by lysing the HAE cells with 200 µl 1N NaOH for 30 minutes and removing to separate tubes. Both fractions were analyzed by gamma scintillation spectrometry. The percentage cytotoxicity was calculated by the following formula: % Cytotoxicity =(cpm (soluble + nonadherent fractions))/(cpm (soluble + nonadherent + adherent fractions))x 100 [formula] Specific cytotoxicity reflects the difference between ^51Cr-release induced by stimulated PMN and unstimulated PMN. The IC50 values for the manganese(II) complexes for protection against neutrophil-mediated cytotoxicity were determined from a computer-driven logistic regression equation from a plot of % specific cytotoxicity versus the concentration of the manganese(II) complex.

[2] = test system: colonic myeloperoxidase activity; assay: Mouse acetic acid-induced colitis model (colonic myeloperoxidase); format: in vivo; conditions: 30 mg/kg dose, intracolonic, 30 minutes before acetic acid, tissue after 24 hours
Experimental: Mouse colitis model. […] Mice were lightly anesthetized. A solution of 3% (v/v) aqueous acetic acid was instilled intracolonically via a flexible polyethylene tube. After 24 hours, the animals were killed and colonic tissue samples were obtained. Tissue samples were assessed biochemically for the neutrophil marker enzyme, myeloperoxidase (MPO). The colonic tissue samples were minced, homogenized in detergent, and sonicated. After centrifugation, enzyme activities were assayed spectrophotometrically by determining the decomposition of peroxide using o-dianisidine as the hydrogen donor. Data was obtained as the absorbance (460 nm) at 20 minutes. Test agents were given intracolonically at a dose of 30 mg/kg body weight 30 minutes before acetic acid instillation as a sonicated suspension in 0.5% aqueous methyl cellulose. Vehicle was given to appropriate acetic acid control animals. Normal tissue was obtained from control animals which received only vehicle. Colonic myeloperoxidase activities were determined as units/g wet weight of tissue. Reduction of colonic myeloperoxidase activity by test agents in acetic acid-treated mice is expressed as % inhibition (Table 2). Colonic myeloperoxidase activity correlated with the degree of tissue inflammation as assessed by visual and histological analysis.

[3] = Stopped-flow kinetic analysis of catalytic dismutation of superoxide; format: biochemical; conditions: for kCAT: catalytic rate constant for dismutation of superoxide, pH 8.1 and 21°C; for SOD activity (catalysis of the dismutation of superoxide), in words: stopped-flow kinetic analysis
Excerpt: Stopped-flow kinetic analysis is an accurate and direct method for quantitatively monitoring the decay rates of superoxide in water.
For the attainment of consistent and accurate measurements all reagents were biologically clean and metal-free. To achieve this, all buffers (Calbiochem) were biological grade, metal-free buffers and were handled with utensils which had been washed first with 0.1 N HCl, followed by purified water, followed by a rinse in a 10^-4 M EDTA bath at pH 8, followed by a rinse with purified water and dried at 65°C for several hours. Dry DMSO solutions of potassium superoxide (Aldrich) were prepared under a dry, inert atmosphere of argon in a Vacuum Atmospheres dry glovebox using dried glassware. The DMSO solutions were prepared immediately before every stopped-flow experiment. A mortar and pestle were used to grind the yellow solid potassium superoxide (~100 mg). The powder was then ground with a few drops of DMSO and the slurry transferred to a flask containing an additional 25 ml of DMSO. The resultant slurry was stirred for 1/2 h and then filtered. […] These solutions were transferred to a glovebag under nitrogen in sealed vials prior to loading the syringe under nitrogen. It should be noted that the DMSO/superoxide solutions are extremely sensitive to water, heat, air, and extraneous metals. A fresh, pure solution has a very slight yellowish tint.
Water for buffer solutions was delivered from an in-house deionized water system to a Barnstead Nanopure Ultrapure Series 550 water system and then double distilled, first from alkaline potassium permanganate and then from a dilute EDTA solution. For example, a solution containing 1.0 g of potassium permanganate, 2 liters of water and additional sodium hydroxide necessary to bring the pH to 9.0 were added to a […] fitted with a solvent distillation head. This distillation will oxidize any trace of organic compounds in the water. The final distillation was carried out under nitrogen in a 2.5-liter flask containing 1500 ml of water from the first still and 1.0 x 10^-6M EDTA. This step will remove remaining trace metals from the ultrapure water. To prevent EDTA mist from volatilizing over the reflux arm to the still head, the 40-cm vertical arm was packed with glass beads and wrapped with insulation. This system produces deoxygenated water that can be measured to have a conductivity of less than 2.0 nanomhos/cm^2.
The stopped-flow spectrometer system was designed and manufactured by Kinetic Instruments Inc. (Ann Arbor, MI) and was interfaced to a MAC IICX personal computer. The software for the stopped-flow analysis was provided by Kinetics Instrument Inc. and was written in QuickBasic with MacAdios drivers. Typical injector volumes (0.10 ml of buffer and 0.006 ml of DMSO) were calibrated so that a large excess of water over the DMSO solution were mixed together. […] Aqueous solutions to be mixed with the DMSO solution of superoxide were prepared using 80 mM concentrations of the Hepes buffer, pH 8.1 (free acid + Na form). One of the reservoir syringes was filled with 5 ml of the DMSO solution while the other was filled with 5 ml of the aqueous buffer solution. The entire injection block, mixer, and spectrometer cell were immersed in a thermostatted circulating water bath with a temperature of 21.0 ± 0.5°C.
Prior to initiating data collection for a superoxide decay, a baseline average was obtained by injecting several shots of the buffer and DMSO solutions into the mixing chamber. These shots were averaged and stored as the baseline.

Row | Molecule | kCAT ([3]; given as ND) | SOD activity (catalysis of the dismutation of superoxide), in words [3] | also measured
1 | C[C@@H]1CNCCNCCNCCNCCN1.[Cl-].[Cl-].[Mn+2] [Example 4, [Manganese(II)dichloro((R)-2-Methyl-1,4,7,10,13-pentaazacyclopentadecane)]] |  |  | protection against human neutrophil-mediated cytotoxicity, in words [1]: protective against human neutrophil-mediated cytotoxicity
2 | [Cl-].[Cl-].[Mn+2].c1ccc(CC2CNCCNCCNCCNCCN2)cc1 (centres unmarked) [Example 6, [Manganese(II)dichloro(2-Phenylmethyl-1,4,7,10,13-pentaazacyclopentadecane)]] |  |  | % Inhibition of Colonic Myeloperoxidase Activity [2]: 48%
3 | Manganese(II)(2,12-Dimethyl-3,7,11,17-tetraazabicyclo[11.3.1]heptadeca-1(17),2,11,13,15 -pentaenel] Chloride [Example 23] | ND (Manganese(II) complex has no detectable superoxide dismutase activity. (kcat<10^6M^-1sec^-1)) |  | 
4 | MnCl2 | ND (Manganese(II) complex has no detectable superoxide dismutase activity. (kcat<10^6M^-1sec^-1)) | failed to perturb the second order spontaneous decay of superoxide; also recorded: has no SOD activity | 
5 | [Manganese(II)1,4,7,10,13-Pentamethyl-1,4,7,10,13-pentaazacyclopentadecane)] Chloride [Example 19] | ND (Manganese(II) complex has no detectable superoxide dismutase activity. (kcat<10^6M^-1sec^-1)) | ineffective at dismutating superoxide | 
6 | [Manganese(II)1,4,8,12-tetramethyl-1,4,8,12-tetraazacyclopentadecane)] Chloride [Example 18] | ND (Manganese(II) complex has no detectable superoxide dismutase activity. (kcat<10^6M^-1sec^-1)) | do not have SOD activity | 
7 | [Manganese(II)1,5,9,13-Tetraazacyclohexadecane)] Chloride [Example 10] | ND (Manganese(II) complex has no detectable superoxide dismutase activity. (kcat<10^6M^-1sec^-1)) | are not catalysts for the dismutation of superoxide | 
8 | [Manganese(II) (1,4,8,11-Tetraazacyclotetradecane)] Chloride [Example 20] | ND (Manganese(II) complex has no detectable superoxide dismutase activity. (kcat<10^6M^-1sec^-1)) | are not catalysts for the dismutation of superoxide | 
9 | [Manganese(II)(1,4,7,10,14-Pentaazacycloheptadecane)] Chloride [Example 12] | ND (Manganese(II) complex has no detectable superoxide dismutase activity. (kcat<10^6M^-1sec^-1)) | ineffective at catalyzing the dismutation of superoxide | 
10 | [Manganese(II)(1,4,8,11-Tetramethyl-1,4,8,11-tetraazacyclotetradecane)]Chloride [Example 25] | ND (Manganese(II) complex has no detectable superoxide dismutase activity. (kcat<10^6M^-1sec^-1)) | are not catalysts for the dismutation of superoxide | 
11 | [Manganese(II)(1,4,8,12-Tetraazacyclopentadecane)] Chloride [Example 21] | ND (Manganese(II) complex has no detectable superoxide dismutase activity. (kcat<10^6M^-1sec^-1)) | do not have SOD activity | 
12 | [Manganese(II)(1-Methyl-1,4,7,10,13-pentaazacyclopentadecane)]Chloride [Example 15] | ND (Manganese(II) complex has no detectable superoxide dismutase activity. (kcat<10^6M^-1sec^-1)) | ineffective at dismutating superoxide | 
13 | [Manganese(II)(1-Methyl-1,4,7,11,14-pentaazacyclohexadecane)] Chloride [Example 16] | ND (Manganese(II) complex has no detectable superoxide dismutase activity. (kcat<10^6M^-1sec^-1)) | ineffective at catalyzing the dismutation of superoxide | 
14 | [Manganese(II)(2,7,12-Trimethyl-3,7,11,17-tetraazabicyclo[11.3.1]heptadeca-1(17),2, 11,13,15-pentaene)] Chloride [Example 24] | ND (Manganese(II) complex has no detectable superoxide dismutase activity. (kcat<10^6M^-1sec^-1)) |  | 
15 | [Manganese(II)(2,13-Dimethyl-3,6,9,12,18-pentaazabicyclo[12.3.1]octadeca-1(18)2,12,14,16 -pentaene)]Chloride [Example 26] | ND (Manganese(II) complex has no detectable superoxide dismutase activity. (kcat<10^6M^-1sec^-1)) |  | 
16 | [Manganese(II)(5,7,7,12,14,14-Hexamethyl-1,4,8,11-tetraazacyclotetradeca-4,11-diene)] Chloride [Example 22] | ND (Manganese(II) complex has no detectable superoxide dismutase activity. (kcat<10^6M^-1sec^-1)) |  | 
17 | [Manganese(II)[1,4,7,10,13,16,19-Heptaazaacycloheneicosane)]Chloride [Example 14] | ND (Manganese(II) complex has no detectable superoxide dismutase activity. (kcat<10^6M^-1sec^-1)) | are not catalysts for the dismutation of superoxide | 
18 | [Manganese(II)[1,4,7,10,13,16-hexaazacyclooctadecane)] Chloride [Example 13] | ND (Manganese(II) complex has no detectable superoxide dismutase activity. (kcat<10^6M^-1sec^-1)) | are not catalysts for the dismutation of superoxide | 
19 | [Manganese(II)[1-oxa-4,7,10,13-Tetrazacyclopentadecane)] Chloride [Example 17] | ND (Manganese(II) complex has no detectable superoxide dismutase activity. (kcat<10^6M^-1sec^-1)) | do not have SOD activity | 
20 | [Manganese(II)dichloro(2,3-Benzo-1,4,7,10,13-pentaazacyclopentadecane)] [Example 37] |  |  | kCAT [3]: 4.6e+06 M⁻¹ s⁻¹
21 | [Manganese(II)dichloro(3,6,9,12,18-Pentaazabicyclo(12.3.1)octadecane)] [Example 38] |  |  | kCAT [3]: 5.28e+06 M⁻¹ s⁻¹
22 | [Manganese(II)dichloro(trans-2,3-Cyclohexano-1,4,7,10,13-pentaazacyclopentadecane)] [Example 35] |  |  | kCAT [3]: 3.44e+07 M⁻¹ s⁻¹
23 | [Manganese(II)nitrate(1,4,7,10,13-pentaazacyclopentadecane)] Nitrate [Example 9] |  |  | kCAT [3]: 2.3e+07 M⁻¹ s⁻¹
24 | [Manganese(III)(1,4,7,11,14-Pentaazacycloheptadecane)] Chloride [Example 11] | ND (Manganese(II) complex has no detectable superoxide dismutase activity. (kcat<10^6M^-1sec^-1)) | ineffective at catalyzing the dismutation of superoxide | 
25 | {Manganese(II)dichloro[2-(1-Naphthyl)-1,4,7,10,13-pentaazacyclopentadecane]} [Example 32] |  |  | kCAT [3]: 6.98e+06 M⁻¹ s⁻¹
26 | {Manganese(II)dichloro[(2S,8R)-Dimethyl-1,4,7,10,13-penta-azacyclopentadecane]} [Example 34] |  |  | kCAT [3]: 7.08e+06 M⁻¹ s⁻¹
27 | {Manganese(II)dichloro[(2S, 5R)-Dimethyl-1,4,7,10,13-pentaazacyclopentadecane]} [Example 33] |  |  | kCAT [3]: 2.9e+07 M⁻¹ s⁻¹
